Among the test systems are TK-10 renal; HCC-2998 colon; MALME-3M melanoma; IGROV1 ovarian; UO-31 renal; OVCAR-4 ovarian; SN12C renal; HCT-116 colon; CAKI-1 renal; A498 renal.
What all share (test): NCI-60 cell line screen, 48 h

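How tested: cells in 96-well plates exposed to compound for 48 hours at five concentrations. GI50: concentration for 50% inhibition of growth. At the TGI there is no net growth.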

Consider `COc1cccc2c1c1nc3cc(C)c(C)cc3nc1n2CCN(C)C`, for which the GI50 is 2.95 µM with TK-10 renal; 1.42 µM in the assay with HCC-2998 colon; 1.14 µM in the assay on MALME-3M melanoma; 1.76 µM in the assay with IGROV1 ovarian; 0.337 µM with UO-31 renal; 2.06 µM with OVCAR-4 ovarian. The GI50 in the assay on SN12C renal was 1.66 µM; with HCT-116 colon, 0.426 µM; in the assay with CAKI-1 renal, 0.946 µM; with A498 renal, 0.533 µM. Besides, the TGI in the assay with TK-10 renal was determined as 11.5 µM; in the assay on HCC-2998 colon, 3.65 µM; in the assay with MALME-3M melanoma it was 2.62 µM; with IGROV1 ovarian it was 10.7 µM; in the assay on UO-31 renal, 2.37 µM; in the assay with OVCAR-4 ovarian, 8.6 µM. Further, the TGI was found to be 11.2 µM with SN12C renal, 10.3 µM with HCT-116 colon, 6.34 µM in the assay with CAKI-1 renal and 1.9 µM with A498 renal.

Take `C/C(=C\c1c[nH]c2ccccc12)[N+](=O)[O-]`: the GI50 is 10.8 µM in the assay with TK-10 renal; 10.5 µM in the assay with HCC-2998 colon; 2.54 µM in the assay on MALME-3M melanoma; 5.43 µM in the assay on IGROV1 ovarian; 4.85 µM with UO-31 renal; 7.58 µM with OVCAR-4 ovarian. The GI50 is 3.53 µM in the assay with SN12C renal, 2.37 µM in the assay on HCT-116 colon, 5.67 µM in the assay with CAKI-1 renal and 14.9 µM in the assay with A498 renal. For the same compound, the TGI with TK-10 renal was 24.5 µM; in the assay on HCC-2998 colon, 23 µM; in the assay with MALME-3M melanoma, 7.85 µM; with IGROV1 ovarian, 19.2 µM; in the assay on UO-31 renal it was 17.7 µM; in the assay on OVCAR-4 ovarian, 21 µM. Further, the TGI stood at 14.4 µM in the assay on SN12C renal, 8.08 µM with HCT-116 colon, 18.9 µM with CAKI-1 renal and 29.6 µM with A498 renal.

For the compound `COc1cc(-c2nc3ccccc3s2)ccc1OCc1nc2n(n1)S(=O)(=O)c1ccccc1N2C`, the GI50 in the assay with TK-10 renal, in the assay with HCC-2998 colon, in the assay with MALME-3M melanoma, in the assay with IGROV1 ovarian, in the assay on UO-31 renal and in the assay on OVCAR-4 ovarian was > 100 µM in each case. Further, the GI50 in the assay with SN12C renal, in the assay on HCT-116 colon, in the assay on CAKI-1 renal and in the assay on A498 renal was > 100 µM in each case. In addition, the TGI in the assay with TK-10 renal, with HCC-2998 colon, in the assay with MALME-3M melanoma, with IGROV1 ovarian, in the assay on UO-31 renal and in the assay with OVCAR-4 ovarian was > 100 µM each time. The TGI in the assay with SN12C renal, in the assay with HCT-116 colon, in the assay on CAKI-1 renal and with A498 renal was > 100 µM in each case.

For `Cc1ccc2[nH]c(=O)c(C(C#N)c3ccccc3)nc2c1` (stereo not given), the TGI is > 100 µM with TK-10 renal; > 100 µM with HCC-2998 colon; > 100 µM in the assay with MALME-3M melanoma; > 100 µM in the assay with IGROV1 ovarian; 69.9 µM in the assay with UO-31 renal; > 100 µM in the assay with OVCAR-4 ovarian. In addition, the TGI with SN12C renal is > 100 µM; with HCT-116 colon, > 100 µM; in the assay with CAKI-1 renal, 76.9 µM; in the assay on A498 renal it was > 100 µM.

Take `O=C(NCC#CCO)C(F)(F)F`: the TGI in the assay with TK-10 renal, with HCC-2998 colon, with MALME-3M melanoma, with IGROV1 ovarian, in the assay on UO-31 renal and with OVCAR-4 ovarian was > 100 µM in each case. Further, the TGI in the assay on SN12C renal, in the assay on HCT-116 colon, in the assay on CAKI-1 renal and in the assay with A498 renal was > 100 µM in each case.

`C/C(=C\c1ccn(-c2ccc(N)cc2)n1)[C@@H]1C[C@@H]2O[C@]2(C)CCC[C@H](C)[C@H](O)[C@@H](C)C(=O)C(C)(C)[C@@H](O)CC(=O)O1`: the GI50 in the assay with TK-10 renal is 0.124 µM; in the assay with HCC-2998 colon, 0.0382 µM; in the assay on MALME-3M melanoma, 0.125 µM; in the assay with IGROV1 ovarian it was 0.494 µM; in the assay with UO-31 renal, 0.251 µM; with OVCAR-4 ovarian, 0.401 µM. The GI50 with SN12C renal was 0.201 µM; in the assay with HCT-116 colon, 0.0189 µM; in the assay on CAKI-1 renal, 0.202 µM; in the assay on A498 renal, 0.102 µM. In addition, the TGI in the assay on TK-10 renal, in the assay on HCC-2998 colon, with MALME-3M melanoma, with IGROV1 ovarian, with UO-31 renal and with OVCAR-4 ovarian was > 50 µM in each case. Moreover, the TGI with SN12C renal was > 50 µM; with HCT-116 colon, > 50 µM; in the assay on CAKI-1 renal it was > 50 µM; in the assay with A498 renal, 3.66 µM.

With `Cc1ccc(C(=O)NC2CCCCC2)cc1-c1ccc(C(=O)NCC2CC2)cc1`, the GI50 is > 25 µM in the assay on TK-10 renal; > 25 µM with HCC-2998 colon; > 25 µM with MALME-3M melanoma; > 25 µM with IGROV1 ovarian; > 19.9 µM in the assay with UO-31 renal; > 25 µM in the assay with OVCAR-4 ovarian. The GI50 was > 25 µM in the assay on SN12C renal, 20.9 µM with HCT-116 colon, 24.9 µM with CAKI-1 renal and 8.51 µM in the assay on A498 renal. The TGI in the assay with TK-10 renal, in the assay on HCC-2998 colon, with MALME-3M melanoma, in the assay with IGROV1 ovarian, in the assay on UO-31 renal and with OVCAR-4 ovarian was > 25 µM in each case. The TGI in the assay with SN12C renal, in the assay on HCT-116 colon, with CAKI-1 renal and with A498 renal was > 25 µM throughout.

`CO[C@H]1CC[C@@]2(C)C(=CC[C@H]3[C@@H]4C[C@H](O)C[C@@]4(C)CC[C@@H]32)C1`: the GI50 was 4.74 µM with TK-10 renal; 11.6 µM in the assay on HCC-2998 colon; 5.22 µM with MALME-3M melanoma; 6.91 µM in the assay on IGROV1 ovarian; 6.53 µM in the assay with UO-31 renal; 8.82 µM in the assay on OVCAR-4 ovarian. Also, the GI50 is 6.61 µM with SN12C renal, 4.88 µM in the assay on HCT-116 colon, 2.93 µM in the assay with CAKI-1 renal and 1.32 µM with A498 renal. In addition, the TGI was 17.9 µM in the assay on TK-10 renal; 27.2 µM with HCC-2998 colon; 19.4 µM in the assay on MALME-3M melanoma; 26.5 µM in the assay with IGROV1 ovarian; 23.4 µM in the assay with UO-31 renal; 54.2 µM in the assay on OVCAR-4 ovarian. Further, the TGI with SN12C renal was found to be 22 µM; with HCT-116 colon, 18.1 µM; in the assay on CAKI-1 renal, 16.3 µM; with A498 renal it was 9.25 µM.

The record behind these values is PubChem BioAssay (NCI).
